Test results: US20240034736A1, “HSD17B13 INHIBITORS AND USES THEREOF” (FL2022-001, Inc., priority 2020, published 2024)
pIC50: −log10 of the molar value.

The compounds below were run against Recombinant human HSD17B13 enzyme (Homo sapiens (Human), UniProt Q7Z5P4) (assay: HSD17b13 NAD(P)H-Glo Biochemical Assay). Details: 50 uM estradiol, 1 mM NAD+; read-out: HSD17β13 IC50.
How it was run: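 Recombinant human HSD17B13 was pre-incubated with inhibitor for 20 min at RT in 20 mM Tris pH 7.4 with 0.002% Tween-20 and 0.02% BSA. Reaction then ran with 50 uM estradiol and 1 mM NAD+ (final) for 3 h at 37° C. NADH formed was detected by NAD(P)H-Glo luminescence after 1 h at RT.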

Recombinant human HSD17B13 enzyme, sequence (Q7Z5P4 20-300): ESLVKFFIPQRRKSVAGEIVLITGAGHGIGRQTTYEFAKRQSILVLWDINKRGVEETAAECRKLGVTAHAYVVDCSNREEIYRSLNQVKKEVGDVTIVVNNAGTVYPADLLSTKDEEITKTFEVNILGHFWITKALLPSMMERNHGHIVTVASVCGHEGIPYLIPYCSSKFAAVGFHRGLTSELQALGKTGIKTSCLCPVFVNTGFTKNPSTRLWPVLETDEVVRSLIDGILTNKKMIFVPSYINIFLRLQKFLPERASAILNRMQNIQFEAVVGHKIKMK

Compound | pIC50
Oc1cnc(-c2ccc3c(cnn3-c3cc(O)c(F)c(F)c3)c2)nc1 [Compound 16.02, 2-(1-(3,4-Difluoro-5-hydroxyphenyl)-1H-indazol-5-yl)pyrimidin-5-ol] | 4.52 to 6.00
N#Cc1ccc(-c2ccc3c(cnn3-c3ccc(F)c(O)c3)c2)c(Cl)c1 [Compound 5.11, 3-Chloro-4-(1-(4-fluoro-3-hydroxyphenyl)-1H-indazol-5-yl)benzonitrile] | 6.00 to 7.00
Cc1nn(-c2cc(C(F)(F)F)c(F)c(O)c2F)c2cnc(N3CCN(S(=O)(=O)c4ccccc4)CC34CC4)cc12 [Compound 19.83, 2,6-Difluoro-3-(3-methyl-5-(7-(phenylsulfonyl)-4,7-diazaspiro[2.5]octan-4-yl)-1H-pyrazolo[3,4-c]pyridin-1-yl)-5-(trifluoromethyl)phenol] | > 7.00
CN(c1ccc2c(c1)c(C1CC1)nn2-c1cc(C(F)(F)F)c(F)c(O)c1F)C1CCOCC1 [Compound 19.75, 3-(3-Cyclopropyl-5-(methyl(tetrahydro-2H-pyran-4-yl)amino)-1H-indazol-1-yl)-2,6-difluoro-5-(trifluoromethyl)phenol] | 6.00 to 7.00
CC(=O)c1cc(-n2nc(C)c3cc(N4CCOCC45CC5)ncc32)cc(O)c1F [Compound 19.86, 1-(2-Fluoro-3-hydroxy-5-(3-methyl-5-(7-oxa-4-azaspiro[2.5]octan-4-yl)-1H-pyrazolo[3,4-c]pyridin-1-yl)phenyl)ethanone] | 6.00 to 7.00
O=S(=O)(Nc1ccc(-c2ccc3c(cnn3-c3ccc(F)c(O)c3)c2)cc1)c1ccccc1 [Compound 11.01, N-(4-(1-(4-Fluoro-3-hydroxyphenyl)-1H-indazol-5-yl)phenyl)benzenesulfonamide] | 6.00 to 7.00
CC1(C)CC=C(c2cc3cnn(-c4cc(O)c(F)c(C(F)(F)F)c4)c3cc2F)CC1 [Compound 18, 5-(5-(4,4-Dimethylcyclohex-1-en-1-yl)-6-fluoro-1H-indazol-1-yl)-2-fluoro-3-(trifluoromethyl)phenol] | 6.00 to 7.00
Cc1nn(-c2nc(C(F)(F)F)c(F)c(O)c2F)c2cnc(N3CCOCC34CC4)cc12 [Compound 19.119, 3,5-Difluoro-2-(3-methyl-5-(7-oxa-4-azaspiro[2.5]octan-4-yl)-1H-pyrazolo[3,4-c]pyridin-1-yl)-6-(trifluoromethyl)pyridin-4-ol] | 4.52 to 6.00
CS(=O)(=O)N1CCN(c2cc3cn(-c4ccc(Cl)c(O)c4)nc3cn2)CC1 [Compound 19.15, 2-Chloro-5-(5-(4-(methylsulfonyl)piperazin-1-yl)-2H-pyrazolo[3,4-c]pyridine-2-yl)phenol] | 4.52 to 6.00
Cc1nn(-c2cc(C(F)(F)F)c(F)c(O)c2F)c2cnc(N3CCN(S(=O)(=O)c4cnn(C)c4)CC34CC4)cc12 [Compound 19.84, 2,6-Difluoro-3-(3-methyl-5-(7-((1-methyl-1H-pyrazol-4-yl)sulfonyl)-4,7-diazaspiro[2.5]octan-4-yl)-1H-pyrazolo[3,4-c]pyridin-1-yl)-5-(trifluoromethyl)phenol] | > 7.00
Cc1nn(-c2cc(C(F)(F)F)c(F)c(O)c2F)c2cnc(N3CCOC4(CC4)C3)nc12 [Compound 19.81, 2,6-Difluoro-3-(3-methyl-5-(4-oxa-7-azaspiro[2.5]octan-7-yl)-1H-pyrazolo[4,3-d]pyrimidin-1-yl)-5-(trifluoromethyl)phenol] | > 7.00
Oc1ccc(-c2ccc3c(cnn3-c3cc(O)c(F)c(F)c3)c2)nc1 [Compound 16, 6-(1-(3,4-Difluoro-5-hydroxyphenyl)-1H-indazol-5-yl)pyridine-3-ol] | 4.52 to 6.00
Cc1nn(-c2cc(C(F)(F)F)c(F)c(O)c2F)c2cnc(N3CCN(S(C)(=O)=O)C4(CCCCC4)C3)cc12 [Compound 19.105, 2,6-Difluoro-3-(3-methyl-5-(1-(methylsulfonyl)-1,4-diazaspiro[5.5]undecan-4-yl)-1H-pyrazolo[3,4-c]pyridin-1-yl)-5-(trifluoromethyl)phenol] | > 7.00
CS(=O)(=O)N1CCN(c2cc3cnn(-c4cc(O)c(Cl)c(F)c4)c3cn2)CC1 [Compound 19.17, 2-Chloro-3-fluoro-5-(5-(4-(methylsulfonyl)piperazin-1-yl)-1H-pyrazolo[3,4-c]pyridine-1-yl)phenol] | 4.52 to 6.00
Cc1nn(-c2cc(C(F)(F)F)c(F)c(O)c2F)c2cnc(N3CCN(S(C)(=O)=O)CC34CC4)nc12 [Compound 19.107, 2,6-Difluoro-3-(3-methyl-5-(7-(methylsulfonyl)-4,7-diazaspiro[2.5]octan-4-yl)-1H-pyrazolo[4,3-d]pyrimidin-1-yl)-5-(trifluoromethyl)phenol] | > 7.00
Cc1nn(-c2cc(O)c(F)c(NC(=O)C(F)(F)F)c2)c2cnc(N3CCOCC34CC4)cc12 [Compound 19.92, 2,2,2-Trifluoro-N-(2-fluoro-3-hydroxy-5-(3-methyl-5-(7-oxa-4-azaspiro[2.5]octan-4-yl)-1H-pyrazolo[3,4-c]pyridin-1-yl)phenyl)acetamide] | 4.52 to 6.00
Oc1cc(-n2ncc3cc(-c4ccc(Cl)c(O)c4)ccc32)ccc1F [Compound 5.01, 2-Chloro-5-(1-(4-fluoro-3-hydroxyphenyl)-1H-indazol-5-yl)phenol] | 6.00 to 7.00
COCCOC1CCN(c2cc3c(C)nn(-c4cc(C(F)(F)F)c(F)c(O)c4F)c3cn2)CC1 [Compound 19.58, 2,6-Difluoro-3-(5-(4-(2-methoxyethoxy)piperidin-1-yl)-3-methyl-1H-pyrazolo[3,4-c]pyridin-1-yl)-5-(trifluoromethyl)phenol] | > 7.00
N#Cc1cc(O)ccc1-c1ccc2c(cnn2-c2ccc(F)c(O)c2)c1 [Compound 5.07, 2-(1-(4-Fluoro-3-hydroxyphenyl)-1H-indazol-5-yl)-5-hydroxybenzonitrile] | 6.00 to 7.00
COC(=O)c1nn(-c2cc(C(F)(F)F)c(F)c(O)c2F)c2ccc(N(C)C3CCOCC3)cc12 [Compound 19.88, Methyl 1-(2,4-difluoro-3-hydroxy-5-(trifluoromethyl)phenyl)-5-(methyl(tetrahydro-2H-pyran-4-yl)amino)-1H-indazole-3-carboxylate] | 6.00 to 7.00
CN(c1ccc2c(c1)c(C(F)(F)F)nn2-c1cc(C(F)(F)F)c(F)c(O)c1F)C1CCOCC1 [Compound 19.71, 2,6-Difluoro-3-(5-(methyl(tetrahydro-2H-pyran-4-yl)amino)-3-(trifluoromethyl)-1H-indazol-1-yl)-5-(trifluoromethyl)phenol] | 6.00 to 7.00
Oc1ccc(-c2ccc3c(cnn3-c3cc(O)c(F)c(F)c3)c2)cn1 [Compound 16.03, 5-(1-(3,4-Difluoro-5-hydroxyphenyl)-1H-indazol-5-yl)pyridine-2-ol] | 6.00 to 7.00
CC(C)S(=O)(=O)Nc1ccc(-c2ccc3c(cnn3-c3ccc(F)c(O)c3)c2)cc1 [Compound 11, N-(4-(1-(4-Fluoro-3-hydroxyphenyl)-1H-indazol-5-yl)phenyl)propane-2-sulfonamide] | 6.00 to 7.00
Oc1ccc(-c2ccc3c(cnn3-c3cccc(O)c3F)c2)cc1Cl [Compound 3.01, 3-(5-(3-Chloro-4-hydroxyphenyl)-1H-indazol-1-yl)-2-fluorophenol] | 6.00 to 7.00

Continued, values first:

pIC50 | Compound
4.52 to 6.00 | Cc1cc(O)c(F)c(-n2ncc3cc(N4CCN(S(C)(=O)=O)CC4)ccc32)c1 [Compound 28.05, 2-Fluoro-5-methyl-3-(5-(4-(methylsulfonyl)piperazin-1-yl)-1H-indazol-1-yl)phenol]
4.52 to 6.00 | CS(=O)(=O)N1CCN(c2ccc3c(cnn3-c3cc(O)c(F)c(F)c3)n2)CC1 [Compound 21.18, 2,3-Difluoro-5-(5-(4-(methyl-sulfonyl)piperazin-1-yl)-1H-pyrazolo[4,3-b]pyridine-1-yl)-phenol]
4.52 to 6.00 | CS(=O)(=O)N1CCN(c2ccc3c(cnn3-c3cc(O)cc(C(F)(F)F)n3)c2)CC1 [Compound 31.02, 2-(5-(4-(Methylsulfonyl)-piperazin-1-yl)-1H-indazol-1-yl)-6-(trifluoromethyl)-pyridin-4-ol]
4.52 to 6.00 | O=C(O)C1CCN(c2ccc3c(cnn3-c3ccc(F)c(O)c3)c2)CC1 [Compound 20.02, 1-(1-(4-Fluoro-3-hydroxy-phenyl)-1H-indazol-5-yl)-piperidine-4-carboxylic acid]
6.00 to 7.00 | O=S(=O)(CC1CC1)N1CCN(c2cc3cnn(-c4cc(O)c(F)c(F)c4)c3cc2Cl)CC1 [Compound 21.38, 5-(6-Chloro-5-(4-((cycloprop-ylmethyl)sulfonyl)piperazin-1-yl)-1H-indazol-1-yl)-2,3-difluorophenol]
4.52 to 6.00 | Oc1c(F)c(-n2cnc3cc(N4CCOCC45CC5)ncc32)cc(C(F)(F)F)c1F [Compound 21.60, 3-(6-(7-Oxa-4-azaspiro[2.5]-octan-4-yl)-3H-imidazo[4,5-c]pyridin-3-yl)-2,6-difluoro-5-(trifluoromethyl)phenol]
6.00 to 7.00 | CS(=O)(=O)N1CCCN(c2ccc3c(cnn3-c3cc(O)c(F)c(F)c3)c2)CC1 [Compound 21.26, 2,3-Difluoro-5-(5-(4-(methyl-sulfonyl)-1,4-diazepan-1-yl)-1H-indazol-1-yl)phenol]
6.00 to 7.00 | CC1CN(S(C)(=O)=O)CCN1c1ccc2c(cnn2-c2cc(O)c(F)c(C(F)(F)F)c2)c1 (stereo not shown) [Compound 21.47, 2-Fluoro-5-(5-(2-methyl-4-(methylsulfonyl)piperazin-1-yl)-1H-indazol-1-yl)-3-(trifluoromethyl)phenol]
4.52 to 6.00 | CS(=O)(=O)C1CCN(c2ccc3c(cnn3-c3cc(O)c(F)c(F)c3)c2)CC1 [Compound 21.06, 2,3-Difluoro-5-(5-(4-(methyl-sulfonyl)piperidin-1-yl)-1H-indazol-1-yl)phenol]

Same assay, conditions: read-out: HSD17β13 inhibition at 30 uM

inhibition at 30 µM | Compound
30% | CS(=O)(=O)N1CCN(c2cc3cnn(-c4cc(O)cc(C#N)c4)c3cn2)CC1 [Compound 19.123, 3-Hydroxy-5-(5-(4-(methylsulfonyl)piperazin-1-yl)-1H-pyrazolo[3,4-c]pyridin-1-yl)benzonitrile]
